# From patent US10544106B2, “Certain chemical entities, compositions, and methods” (NeuPharma, Inc., priority 2016, dated 2020)
# pIC50: −log10 of the molar value.
# Biological target: BTK (Homo sapiens (Human), UniProt Q06187)
# Test: Z'-LYTE kinase inhibition assay against BTK
# Assay type: biochemical
# Settings: compound at 100 nM; ATP concentration at Km
# Experimental: Inhibitory activities of compounds against BTK, EGFR T790M, EGFR L858R, and EGFR L858R/T790M were measured using Z′-LYTE® Method from Life Technologies as briefly described in the following.
# Test Compounds are screened in 1% DMSO (final) in the well. For 10 point titrations, 3-fold serial dilutions are conducted from the starting concentration. All ATP Solutions are diluted to a 4× working concentration in Kinase Buffer (50 mM HEPES pH 7.5, 0.01% BRIJ-35, 10 mM MgCl2, 1 mM EGTA). Peptide/Kinase Mixtures are diluted to a 2× working concentration in the appropriate Kinase Buffers as described below. • (i) Peptide/Kinase Mixtures for measurement of EGFR (ErbB1) L858R: • The 2×EGFR (ErbB1) L858R/Tyr 04 mixture is prepared in 50 mM HEPES pH 7.5, 0.01% BRIJ-35, 10 mM MgCl2, 4 mM MnCl2. 1 mM EGTA, 2 mM DTT. The final 10 μL Kinase Reaction consists of 0.2-1.68 ng EGFR (ErbB1) L858R and 2 μM Tyr 04 in 50 mM HEPES pH 7.5, 0.01% BRIJ-35, 10 mM MgCl2, 2 mM MnCl2, 1 mM EGTA, 1 mM DTT. After the 1 hour Kinase Reaction incubation, 5 μL of a 1:64 dilution of Development Reagent B is added. • (ii) Peptide/Kinase Mixtures for measurement of EGFR (ErbB1) T790M: The 2×EGFR (ErbB1) T790M/Tyr 04 mixture is prepared in 50 mM HEPES pH 6.5, 0.01% BRIJ-35, 10 mM MgCl2, 1 mM EGTA, 0.02% NaN3. The final 10 μL Kinase Reaction consists of 3.9-30.2 ng EGFR (ErbB1) T790M and 2 μM Tyr 04 in 50 mM HEPES pH 7.0, 0.01% BRIJ-35, 10 mM MgCl2, 1 mM EGTA, 0.01% NaN3. After the 1 hour Kinase Reaction incubation, 5 μL of a 1:64 dilution of Development Reagent B is added. • (iii) Peptide/Kinase Mixtures for measurement of EGFR (ErbB1) L858R/T790M: The 2×EGFR (ErbB1) T790M L858R/Tyr 04 mixture is prepared in 50 mM HEPES pH 6.5, 0.01% BRIJ-35, 10 mM MgCl2, 1 mM EGTA, 0.02% NaN3. The final 10 μL Kinase Reaction consists of 0.38-4.22 ng EGFR (ErbB1) T790M L858R and 2 μM Tyr 04 in 50 mM HEPES pH 7.0, 0.01% BRIJ-35, 10 mM MgCl2, 1 mM EGTA, 0.01% NaN3. After the 1 hour Kinase Reaction incubation, 5 μL of a 1:64 dilution of Development Reagent B is added. • (iv) Peptide/Kinase Mixtures for measurement of BTK: The 2×BTK/Tyr 01 mixture is prepared in 50 mM HEPES pH 7.5, 0.010/BRIJ-35, 10 mM MgCl2, 1 mM EGTA. The final 10 μL Kinase Reaction consists of 1.04-10.4 ng BTK and 2 μM Tyr 01 in 50 mM HEPES pH 7.5, 0.01% BRIJ-35, 10 mM MgCl2, 1 mM EGTA. After the 1 hour Kinase Reaction incubation, 5 μL of a 1:256 dilution of Development Reagent B is added.
# Reaction starts by 30-second shaking of mixture consisting of 2.5 μL 4× test compound, 5 μL 2× kinase reaction mixture and 2.5 μL 4×ATP Solution on Bar-coded Corning, low volume NBS, black 384-well plate (Corning Cat. #3676). Then the mixture is incubated for 60-minute at room temperature for the kinase reaction, followed by addition of 5 μL of a 1:1024 dilution of development reagent A and 30-second plate shake. The mixture is then incubated for another 60-minute at room temperature for development reaction. Finally fluorescence is read by plate reader.
# The Z′-LYTE assay was carried out with ATP concentration at Km. The scale utilized in Tables 2-6 is as follows: ++ more than 50% inhibition and + less than 50% inhibition.
# To determine IC50 of a compound against a kinase, a series of concentrations of the compound were tested for the inhibition. IC50 was calculated by plotting the concentration of compound vs the percentage of inhibition in treated wells using GraphPad Prism 5. […] The scale utilized in Table 7 is as follows: ++ less than 100 nM and + greater than 100 nM.
# BTK, sequence (Q06187 whole entry): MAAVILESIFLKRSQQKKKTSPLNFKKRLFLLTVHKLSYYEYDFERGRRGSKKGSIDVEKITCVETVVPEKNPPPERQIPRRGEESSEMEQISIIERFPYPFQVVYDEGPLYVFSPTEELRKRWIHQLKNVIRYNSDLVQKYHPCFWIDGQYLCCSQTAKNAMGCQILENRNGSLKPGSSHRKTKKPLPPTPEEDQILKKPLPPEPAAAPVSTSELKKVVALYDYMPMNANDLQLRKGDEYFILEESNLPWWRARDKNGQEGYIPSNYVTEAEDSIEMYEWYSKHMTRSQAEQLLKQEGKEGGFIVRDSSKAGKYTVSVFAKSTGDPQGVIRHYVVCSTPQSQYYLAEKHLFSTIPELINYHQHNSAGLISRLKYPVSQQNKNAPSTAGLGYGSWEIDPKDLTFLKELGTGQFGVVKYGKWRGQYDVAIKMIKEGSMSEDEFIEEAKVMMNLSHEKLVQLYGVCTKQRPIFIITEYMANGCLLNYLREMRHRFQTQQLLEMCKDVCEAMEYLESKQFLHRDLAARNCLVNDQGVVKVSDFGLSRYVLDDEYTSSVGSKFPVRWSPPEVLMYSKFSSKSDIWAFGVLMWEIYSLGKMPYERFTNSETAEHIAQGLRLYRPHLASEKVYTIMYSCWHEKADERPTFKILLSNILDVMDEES
inhibition at 0.1 µM,% Inhibition against BTK,SMILES
< 50%,–,"C=CC(=O)N1CCCC(c2cc(-c3ccccc3)cc3cncnc23)C1 (centres unmarked) [C020, 1-(3-(6-phenylquinazolin-8-yl)piperidin-1-yl)prop-2-en-1-one]"
< 50%,–,"C=CC(=O)N1CCC(c2cc(-c3ccc(Oc4ccccn4)cc3F)n3cnccc23)C1 (centres unmarked) [C159, 1-(3-(7-(2-fluoro-4-(pyridin-2-yloxy)phenyl)pyrrolo[1,2-c]pyrimidin-5-yl)pyrrolidin-1-yl)prop-2-en-1-one]"
< 50%,–,"C=CC(=O)N1CCC(c2cc(-c3ccc(Oc4cccc(F)c4)nc3)cc3cncnc23)C1 (centres unmarked) [C095, 1-(3-(6-(6-(3-fluorophenoxy)pyridin-3-yl)quinazolin-8-yl)pyrrolidin-1-yl)prop-2-en-1-one]"
> 50%,–,"C=CC(=O)Nc1cccc(-c2cc(-c3ccc(Oc4ccccn4)cc3Cl)c(N)c3cncnc23)c1 [C203, N-(3-(5-amino-6-(2-chloro-4-(pyridin-2-yloxy)phenyl)quinazolin-8-yl)phenyl)acrylamide]"
< 50%,–,"C=CC(=O)N1CCC(c2cc(-c3ccc(C(=O)Nc4cccnc4)cc3)cc3cncnc23)C1 (centres unmarked) [C115, 4-(8-(1-acryloylpyrrolidin-3-yl)quinazolin-6-yl)-N-(pyridin-3-yl)benzamide]"
< 50%,–,"C=CC(=O)N1CCC(c2cc(-c3ccc(Oc4ccccn4)c(OC)c3)n3cnccc23)C1 (centres unmarked) [C167, 1-(3-(7-(3-methoxy-4-(pyridin-2-yloxy)phenyl)pyrrolo[1,2-c]pyrimidin-5-yl)pyrrolidin-1-yl)prop-2-en-1-one]"
> 50%,–,"C=CC(=O)Nc1cccc(-c2cc(-c3ccc(C(=O)Nc4cc(C(N)=O)ccn4)cc3Cl)cc3cncnc23)c1 [C134, 2-(4-(8-(3-acrylamidophenyl)quinazolin-6-yl)-3-chlorobenzamido)isonicotinamide]"
> 50%,–,"C=CC(=O)Nc1cccc(-c2cc(-c3ccc(Oc4ncccc4Cl)cc3F)cc3cncnc23)c1 [C106, N-(3-(6-(4-((3-chloropyridin-2-yl)oxy)-2-fluorophenyl)quinazolin-8-yl)phenyl)acrylamide]"
> 50%,–,"C=CC(=O)Nc1cccc(-c2cc(-c3ccc(C(=O)Nc4cc(C5CC5)ccn4)cc3Cl)c(N)c3cncnc23)c1 [C200, 4-(8-(3-acrylamidophenyl)-5-aminoquinazolin-6-yl)-3-chloro-N-(4-cyclopropylpyridin-2-yl)benzamide]"
> 50%,–,"C=CC(=O)N1CCC(c2cc(-c3ccc(C(=O)Nc4cc(C(F)(F)F)ccn4)cc3)cc3cncnc23)C1 (centres unmarked) [C125, 4-(8-(1-acryloylpyrrolidin-3-yl)quinazolin-6-yl)-N-(4-(trifluoromethyl)pyridin-2-yl)benzamide]"
< 50%,–,"C=CC(=O)N1CCCC(c2cc(-c3cccc(Nc4cccc(C(F)(F)F)c4)c3)cc3cncnc23)C1 (centres unmarked) [C029, 1-(3-(6-(3-((3-(trifluoromethyl)phenyl)amino)phenyl)quinazolin-8-yl)piperidin-1-yl)prop-2-en-1-one]"
> 50%,–,"C=CC(=O)Nc1cccc(-c2cc(-c3ccc(Oc4ccccn4)c(OC)c3)cc3cncnc23)c1 [C119, N-(3-(6-(3-methoxy-4-(pyridin-2-yloxy)phenyl)quinazolin-8-yl)phenyl)acrylamide]"
–,++ (more than 50% inhibition),"C=CC(=O)N1CCC(c2nc(-c3ccc(Oc4ccccn4)cc3)n3c(N)nccc23)C1 (racemic) [C225, (S/R)-1-(3-(5-amino-3-(4-(pyridin-2-yloxy)phenyl)imidazo[1,5-c]pyrimidin-1-yl)pyrrolidin-1-yl)prop-2-en-1-one]"
< 50%,–,"C=CC(=O)N1CCC(c2cc(-c3ccc(Oc4ccccn4)cc3F)cc3cnc(N)nc23)C1 (centres unmarked) [C144, 1-(3-(2-amino-6-(2-fluoro-4-(pyridin-2-yloxy)phenyl)quinazolin-8-yl)pyrrolidin-1-yl)prop-2-en-1-one]"
< 50%,–,"C=CC(=O)N1CCC(n2c(-c3ccccc3F)nc3cncnc32)C1 (centres unmarked) [C032, 1-(3-(8-(2-fluorophenyl)-9H-purin-9-yl)pyrrolidin-1-yl)prop-2-en-1-one]"
< 50%,–,"C=CC(=O)Nc1cccc(-c2cc(-c3ccc(Oc4cc(C(F)(F)F)ccn4)cc3)c(N)c3cncnc23)c1 [C188, N-(3-(5-amino-6-(4-((4-(trifluoromethyl)pyridin-2-yl)oxy)phenyl)quinazolin-8-yl)phenyl)acrylamide]"
< 50%,–,"C=CC(=O)N1CCC(c2cc(-c3ccc(C(=O)Nc4cccc(C(F)(F)F)c4)cc3)cc3cncnc23)C1 (centres unmarked) [C068, 4-(8-(1-acryloylpyrrolidin-3-yl)quinazolin-6-yl)-N-(3-(trifluoromethyl)phenyl)benzamide]"
> 50%,–,"C=CC(=O)N1CCC(c2cc(-c3ccc(Oc4ccccn4)cc3)cc3cncnc23)C1 (centres unmarked) [C107, 1-(3-(6-(4-(pyridin-2-yloxy)phenyl)quinazolin-8-yl)pyrrolidin-1-yl)prop-2-en-1-one]"
< 50%,–,"C=CC(=O)Nc1cccc(-c2cc(-c3ccc(C(=O)Nc4ccccn4)cc3)n3cnccc23)c1 [C044, 4-(5-(3-acrylamidophenyl)pyrrolo[1,2-c]pyrimidin-7-yl)-N-(pyridin-2-yl)benzamide]"
< 50%,–,"C=CC(=O)N1CCCC(c2cc(-c3cccnc3)cc3cnc(N)nc23)C1 (centres unmarked) [C045, 1-(3-(2-amino-6-(pyridin-3-yl)quinazolin-8-yl)piperidin-1-yl)prop-2-en-1-one]"
< 50%,–,"C=CC(=O)N1CCC(c2cc(-c3ccc(C(=O)Nc4ccccn4)cc3)n3cnccc23)C1 (centres unmarked) [C046, 4-(5-(1-acryloylpyrrolidin-3-yl)pyrrolo[1,2-c]pyrimidin-7-yl)-N-(pyridin-2-yl)benzamide]"
> 50%,–,"C=CC(=O)Nc1cccc(-c2cc(-c3ccc(C(=O)Nc4cc(C#N)ccn4)cc3F)cc3cncnc23)c1 [C154, 4-(8-(3-acrylamidophenyl)quinazolin-6-yl)-N-(4-cyanopyridin-2-yl)-3-fluorobenzamide]"
< 50%,–,"C=CC(=O)Nc1cccc(-c2cc(-c3ccc(C(=O)Nc4cc(C#N)ccn4)c(OC)c3)cc3cncnc23)c1 [C156, 4-(8-(3-acrylamidophenyl)quinazolin-6-yl)-N-(4-cyanopyridin-2-yl)-2-methoxybenzamide]"
< 50%,–,"C=CC(=O)N1CCC(n2c(-c3ccccc3)nc3cnc(N)nc32)C1 (centres unmarked) [C015, 1-(3-(2-amino-8-phenyl-9H-purin-9-yl)pyrrolidin-1-yl)prop-2-en-1-one]"
< 50%,–,"C=CC(=O)Nc1cccc(-c2cc(-c3ccc(C(=O)Nc4cc(C(N)=O)ccn4)cc3)cc3cncnc23)c1 [C138, 2-(4-(8-(3-acrylamidophenyl)quinazolin-6-yl)benzamido)isonicotinamide]"

# Same assay, conditions: series of concentrations; GraphPad Prism 5
row,pIC50,SMILES
1,> 7.00,"C=CC(=O)Nc1cccc(-c2cc(-c3ccc(Oc4ncccc4Cl)cc3F)cc3cncnc23)c1 [C106, N-(3-(6-(4-((3-chloropyridin-2-yl)oxy)-2-fluorophenyl)quinazolin-8-yl)phenyl)acrylamide]"
2,> 7.00,"CC#CC(=O)N1CCC(c2nc(-c3ccc(C(=O)Nc4cc(C5CC5)ccn4)cc3)n3c(N)nccc23)C1 (centres unmarked) [C239, 4-(5-amino-1-(1-(but-2-ynoyl)pyrrolidin-3-yl)imidazo[1,5-c]pyrimidin-3-yl)-N-(4-cyclopropylpyridin-2-yl)benzamide]"
3,> 7.00,"C=CC(=O)N1CCC(c2nc(-c3ccc(Oc4ccccn4)cc3)n3c(N)nccc23)C1 (racemic) [C225, (S/R)-1-(3-(5-amino-3-(4-(pyridin-2-yloxy)phenyl)imidazo[1,5-c]pyrimidin-1-yl)pyrrolidin-1-yl)prop-2-en-1-one]"
4,< 7.00,"C=CC(=O)Nc1cccc(-c2cc(-c3ccc(Oc4cc(C(F)(F)F)ccn4)cc3)c(N)c3cncnc23)c1 [C188, N-(3-(5-amino-6-(4-((4-(trifluoromethyl)pyridin-2-yl)oxy)phenyl)quinazolin-8-yl)phenyl)acrylamide]"
